Holding throughout (assay type): functional, cell-based
Assay [1] has as its system MV4-11. The experiment in a line: Antiproliferative activity against human MV4-11 cells expressing FLT3-ITD mutant incubated for 48 hrs by CCK8 assay. The following applies: MV4-11, 48 h. (Tetrazolium dyes change colour on reduction, which living cells bring about.)
In assay [2] the test system is MOLM-13. The experiment in a line: Antiproliferative activity against human MOLM-13 cells incubated for 48 hrs by CCK8 assay. The settings on record: MOLM-13, 48 h.
Assay [3] relates to MOLM-13. Description: Antiproliferative activity against Quizartinib-resistant human MOLM-13 cells incubated for 48 hrs by CCK8 assay. The following applies: MOLM-13, 48 h.
Assay [4] deals with MOLM-13. The experiment in a line: Antiproliferative activity against Sunitinib-resistant human MOLM-13 cells incubated for 48 hrs by CCK8 assay. The settings on record: MOLM-13, 48 h.

Structures are written as SMILES.

As a reminder, the IC50 is the concentration that inhibits the measured activity by half.

For `Cc1c(NC(=O)CN2CCN(C(=O)CCCCCNc3cccc4c3C(=O)N(C3CCC(=O)NC3=O)C4=O)CC2)c[nH]c1/C=C1\C(=O)Nc2ccc(F)cc21` (configuration not stated), the IC50 in assay [1] was 169 nM; in assay [2], 208 nM.
The corresponding values for `Cc1c(NC(=O)CN2CCN(C3CC4(CCN(c5ccc6c(c5)C(=O)N(C5CCC(=O)NC5=O)C6=O)CC4)C3)CC2)c[nH]c1/C=C1\C(=O)Nc2ccc(F)cc21` (configuration not stated) are 51.7 nM and 249 nM.
The corresponding values for `Cc1c(NC(=O)CN2CCN(C(=O)CCOCCNc3cccc4c3C(=O)N(C3CCC(=O)NC3=O)C4=O)CC2)c[nH]c1/C=C1\C(=O)Nc2ccc(F)cc21` (configuration not stated) are 326 nM and 542 nM.
The like results for `Cc1ncsc1-c1ccc(CNC(=O)[C@H]2C[C@H](O)CN2C(=O)[C@@H](NC(=O)CCCCCCCCC(=O)N2CCN(CC(=O)Nc3c[nH]c(/C=C4\C(=O)Nc5ccc(F)cc54)c3C)CC2)C(C)(C)C)cc1` were, in that order, 410 nM and more than 1000 nM.
Consider `Cc1c(NC(=O)CN2CCN(C(=O)CCCCCCCCC(=O)NCCNc3cccc4c3C(=O)N(C3CCC(=O)NC3=O)C4=O)CC2)c[nH]c1/C=C1\C(=O)Nc2ccc(F)cc21` (configuration not stated), for which the values for the IC50 in assay [1] and in assay [2] were 214 nM and 233 nM, respectively.
For the compound `Cc1c(NC(=O)CN2CCN(C3CCN(c4ccc5c(c4)C(=O)N(C4CCC(=O)NC4=O)C5=O)CC3)CC2)c[nH]c1/C=C1\C(=O)Nc2ccc(F)cc21` (configuration not stated), the IC50 was 106 nM in assay [1] and 335 nM in assay [2].
On to `Cc1ncsc1-c1ccc(CNC(=O)[C@H]2C[C@H](O)CN2C(=O)[C@@H](NC(=O)CCCCCCC(=O)N2CCN(CC(=O)Nc3c[nH]c(/C=C4\C(=O)Nc5ccc(F)cc54)c3C)CC2)C(C)(C)C)cc1`, for which the IC50 in assay [1] was 262 nM; in assay [2], 399 nM.
Consider `Cc1c(NC(=O)CN2CCN(CCCCCCCCCOc3cccc4c3C(=O)N(C3CCC(=O)NC3=O)C4=O)CC2)c[nH]c1/C=C1\C(=O)Nc2ccc(F)cc21` (configuration not stated), for which the IC50 in assay [1] was determined as 130 nM; in assay [2], 276 nM.
For the compound `Cc1ncsc1-c1ccc(CNC(=O)[C@@H]2C[C@@H](O)CN2C(=O)[C@H](NC(=O)CCCCCCCC(=O)N2CCN(CC(=O)Nc3c[nH]c(/C=C4\C(=O)Nc5ccc(F)cc54)c3C)CC2)C(C)(C)C)cc1`, the IC50 in assay [1] is 191 nM; in assay [2], more than 1000 nM.
The like results for `Cc1c(NC(=O)CN2CCN(C(=O)CCOCCOCCNC(=O)COc3cccc4c3C(=O)N(C3CCC(=O)NC3=O)C4=O)CC2)c[nH]c1/C=C1\C(=O)Nc2ccc(F)cc21` (configuration not stated) were, in that order, 388 nM and more than 1000 nM.
Regarding `CCN(CC)CCNC(=O)c1c(C)[nH]c(/C=C2\C(=O)Nc3ccc(F)cc32)c1C` [SUNITINIB], the results for the IC50 in assay [3] and in assay [4] were more than 1000 nM and 1460 nM, respectively.
In the case of `CCc1nc(C(N)=O)c(Nc2ccc(N3CCC(N4CCN(C)CC4)CC3)c(OC)c2)nc1NC1CCOCC1` [GILTERITINIB], the IC50 in assay [3] worked out at 2320 nM; in assay [1], 40.2 nM; in assay [4], 10900 nM; in assay [2] it was 67.5 nM.
Consider `Cc1c(NC(=O)CN2CCN(C(=O)CCCCCCNc3cccc4c3C(=O)N(C3CCC(=O)NC3=O)C4=O)CC2)c[nH]c1/C=C1\C(=O)Nc2ccc(F)cc21` (configuration not stated), for which the IC50 is 141 nM in assay [1] and 206 nM in assay [2].
With `Cc1c(NC(=O)CN2CCN(C(=O)CCCCCC(=O)NCCNc3cccc4c3C(=O)N(C3CCC(=O)NC3=O)C4=O)CC2)c[nH]c1/C=C1\C(=O)Nc2ccc(F)cc21` (configuration not stated), the results for the IC50 in assay [1] and in assay [2] were 168 nM and 487 nM, respectively.
The like results for `Cc1c(NC(=O)CN2CCN(CC3CCN(c4cccc5c4C(=O)N(C4CCC(=O)NC4=O)C5=O)CC3)CC2)c[nH]c1/C=C1\C(=O)Nc2ccc(F)cc21` (configuration not stated) were, in that order, 194 nM and 336 nM.
On to `Cc1c(NC(=O)CN2CCN(C(=O)CCOCCOCCOCCNc3cccc4c3C(=O)N(C3CCC(=O)NC3=O)C4=O)CC2)c[nH]c1/C=C1\C(=O)Nc2ccc(F)cc21` (configuration not stated), for which the values for the IC50 in assay [1] and in assay [2] were 396 nM and 445 nM, respectively.
With `Cc1c(NC(=O)CN2CCN(C(=O)CCOCCNC(=O)COc3cccc4c3C(=O)N(C3CCC(=O)NC3=O)C4=O)CC2)c[nH]c1/C=C1\C(=O)Nc2ccc(F)cc21` (configuration not stated), the results for the IC50 in assay [1] and in assay [2] were 812 nM and more than 1000 nM, respectively.
The corresponding values for `Cc1c(NC(=O)CN2CCN(C(=O)CCCCCCCCCCNc3cccc4c3C(=O)N(C3CCC(=O)NC3=O)C4=O)CC2)c[nH]c1/C=C1\C(=O)Nc2ccc(F)cc21` (configuration not stated) are 193 nM and 273 nM.
The like results for `Cc1c(NC(=O)CN2CCN(CCCCCCCCC(=O)Nc3cccc4c3C(=O)N(C3CCC(=O)NC3=O)C4=O)CC2)c[nH]c1/C=C1\C(=O)Nc2ccc(F)cc21` (configuration not stated) were, in that order, 231 nM and 299 nM.
The like results for `Cc1c(NC(=O)CN2CCN(C(=O)CCCC(=O)NCCNc3cccc4c3C(=O)N(C3CCC(=O)NC3=O)C4=O)CC2)c[nH]c1/C=C1\C(=O)Nc2ccc(F)cc21` (configuration not stated) were, in that order, 230 nM and more than 1000 nM.
Consider `Cc1ncsc1-c1ccc(CNC(=O)[C@@H]2C[C@@H](O)CN2C(=O)[C@@H](NC(=O)CCCCC(=O)N2CCN(CC(=O)Nc3c[nH]c(/C=C4\C(=O)Nc5ccc(F)cc54)c3C)CC2)C(C)(C)C)cc1`, for which the IC50 in assay [1] is 360 nM; in assay [2], more than 1000 nM.
The corresponding values for `Cc1c(NC(=O)CN2CCN(C3CN(c4ccc5c(c4)C(=O)N(C4CCC(=O)NC4=O)C5=O)C3)CC2)c[nH]c1/C=C1\C(=O)Nc2ccc(F)cc21` (configuration not stated) are 170 nM and 367 nM.
The like results for `Cc1c(NC(=O)CN2CCN(C(=O)CCCCC(=O)NCCNc3cccc4c3C(=O)N(C3CCC(=O)NC3=O)C4=O)CC2)c[nH]c1/C=C1\C(=O)Nc2ccc(F)cc21` (configuration not stated) were, in that order, 201 nM and 657 nM.
Turning to `Cc1c(NC(=O)CN2CCN(C(=O)CCCCCCC(=O)NCCNc3cccc4c3C(=O)N(C3CCC(=O)NC3=O)C4=O)CC2)c[nH]c1/C=C1\C(=O)Nc2ccc(F)cc21` (configuration not stated), the values for the IC50 in assay [1] and in assay [2] were 288 nM and 533 nM, respectively.
The corresponding values for `Cc1c(NC(=O)CN2CCN(C(=O)CCOCCOCCNc3cccc4c3C(=O)N(C3CCC(=O)NC3=O)C4=O)CC2)c[nH]c1/C=C1\C(=O)Nc2ccc(F)cc21` (configuration not stated) are 201 nM and 686 nM.
The corresponding values for `Cc1ncsc1-c1ccc(CNC(=O)[C@@H]2C[C@@H](O)CN2C(=O)[C@@H](NC(=O)CCCCCC(=O)N2CCN(CC(=O)Nc3c[nH]c(/C=C4\C(=O)Nc5ccc(F)cc54)c3C)CC2)C(C)(C)C)cc1` are 216 nM and more than 1000 nM.
Regarding `Cc1c(NC(=O)CN2CCN(CC3CN(c4ccc5c(c4)C(=O)N(C4CCC(=O)NC4=O)C5=O)C3)CC2)c[nH]c1/C=C1\C(=O)Nc2ccc(F)cc21` (configuration not stated), the IC50 in assay [1] stood at 126 nM; in assay [2], 333 nM.
For `Cc1c(NC(=O)CN2CCN(C(=O)CCCCCCCC(=O)NCCNc3cccc4c3C(=O)N(C3CCC(=O)NC3=O)C4=O)CC2)c[nH]c1/C=C1\C(=O)Nc2ccc(F)cc21` (configuration not stated), the figures for the IC50 in assay [1] and in assay [2] were 170 nM and 358 nM, respectively.
As to `Cc1c(NC(=O)CN2CCN(C(=O)CCCCCCCCCCCNc3cccc4c3C(=O)N(C3CCC(=O)NC3=O)C4=O)CC2)c[nH]c1/C=C1\C(=O)Nc2ccc(F)cc21` (configuration not stated), the IC50 in assay [1] is 372 nM; in assay [2], more than 1000 nM.
For `Cc1c(NC(=O)CN2CCN(C(=O)CCCCCCCNc3cccc4c3C(=O)N(C3CCC(=O)NC3=O)C4=O)CC2)c[nH]c1/C=C1\C(=O)Nc2ccc(F)cc21` (configuration not stated), the half-inhibitory concentration (IC50) in assay [1] stood at 91.4 nM; in assay [2], 220 nM.

For the origin of these results see ChEMBL document CHEMBL5543162, “Discovery of a Novel Orally Bioavailable FLT3-PROTAC Degrader for Efficient Treatment of Acute Myeloid Leukemia and Overcoming Resistance of FLT3 Inhibitors” (J Med Chem, 2024).
